Measured values published in PMC11591284, “Development and Optimization of a Redox Enzyme-Based Fluorescence Biosensor for the Identification of MsrB1 Inhibitors” (Antioxidants, 2024).

Experiments:
[1] = target: T1, MsrB1 (Mus musculus, UniProt Q9JLC3, U95C); test: NADPH consumption assay of MsrB1 activity; format: biochemical; settings: absorbance at 340 nm, 900 s vs 0 min; approximately 50 μM compound; DMSO control 0.638
T1 construct: made in house
T1 sequence (Q9JLC3 1-116 U95C): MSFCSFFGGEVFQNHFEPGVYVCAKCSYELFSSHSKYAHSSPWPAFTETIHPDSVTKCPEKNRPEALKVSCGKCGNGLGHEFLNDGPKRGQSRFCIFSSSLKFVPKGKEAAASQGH
Description: The activity of MsrB1 was assessed over a 900-s period in a 20 mM 4-(2-hydroxyethyl)-1-piperazineethanesulfonic acid (HEPES) buffer at pH 7.5 and 37 °C. The reaction mixture contained 500 μM N-AcMetO, 6 μM MsrB1, 2 μM mouse thioredoxin, 1 μM mouse thioredoxin reductase, 50 μM NADPH, and approximately 50 μM of a chemical compound. All components, except for the chemical compound, substrate (N-AcMetO), and NADPH, were pre-mixed. The chemical compound was added and incubated for 10 min. NADPH (50 μM) and 500 μM N-AcMetO were added before absorbance measurements began. The rate of NADPH oxidation was monitored by measuring absorbance at 340 nm every 30 s until the reaction was complete.

[2] = target: T1, MsrB1; test: MsrB1 activity assay by HPLC with dabsylated MetO as substrate; format: biochemical; settings: dabsyl-MetO to dabsyl-Met
Description: Methionine sulfoxide reductase B1 activity was determined using dabsylated MetO as substrate. […] The reaction was conducted for 30 min at 37 °C in a water bath and stopped by adding 200 μL of acetonitrile and vortexing. The reaction product, dabsyl-Met, was analyzed by HPLC using a ZORBAX RX-C18 column (5 μm; 4.6 × 150 mm). The column was pre-equilibrated with 0.14 M sodium acetate (pH 6.1), 0.5 mL/L triethylamine, and 30% acetonitrile. A total of 50 μL of the sample was loaded onto the column. The flow rate was 1 mL·min^−1, and a linear gradient elution mode was used (30% to 70%). Dabsyl-Met was detected via absorbance at 436 nm.

[3] = target: T2, Recombinant mouse MsrB1 protein (Mus musculus, UniProt Q9JLC3, U95C); test: Microscale thermophoresis (MST) binding assay; settings: read-out: KD ± SD
T2 construct: made in house; host or cells: E. coli (inferred; Rosetta2 (DE3) pLysS and pET-28a are described only for the RIYsense fusion)
T2 sequence (Q9JLC3 1-116 U95C): T1 sequence (Q9JLC3 1-116 U95C)
Description: MST analysis was performed using the Monolith NT.115 system (NanoTemper Technologies, München, Germany). Recombinant mouse MsrB1 protein was labeled with the Monolith His-Tag Labeling Kit RED-tris-NTA 2nd Generation (NanoTemper Technologies, Germany). The protein was prepared at a concentration of 200 nM, and the RED-tris-NTA 2nd Generation dye was diluted to 100 nM in the PBS-T (Tween 20) buffer. A mixture of 100 μL of 200 nM protein and 100 μL of 100 nM dye was incubated at RT for 30 min. After incubation, the sample was centrifuged at 13,000 rpm at 4 °C for 10 min, and the supernatant was transferred to a new tube, completing the protein labeling process and preparing the sample for analysis. Inhibitor compounds were serially diluted in DMSO, starting at a concentration of 1.25 mM (1:1 dilution, 16 points), and then each of the 16 dilutions was further diluted fivefold with PBS-T buffer. Next, 10 μL of the diluted compounds were mixed with 10 μL of the labeled protein, followed by resuspension and incubation for 10 min at RT. The samples were loaded into capillaries in serial order and analyzed using the Monolith NT.115 system at 60% LED power and 60% MST power. Changes in normalized fluorescence, dependent on the concentration of the compounds after 30 s of MST on time, were analyzed to determine Kd values.

[4] = test system: bone marrow-derived macrophages (BMDMs); test: Cytokine mRNA expression in LPS-stimulated bone marrow-derived macrophages; format: cell-based, mouse; settings: WT BMDMs, 1 μM inhibitor, LPS stimulation 24 h
Description: Bone marrow-derived macrophages (BMDMs) were generated by culturing bone marrow cells isolated from 8-week-old male C57BL/6 mice and MsrB1 knockout (KO) mice. The cells were cultured in high-glucose Dulbecco’s Modified Eagle Medium (DMEM) (Cytiva, Marlborough, MA, USA) supplemented with 10% fetal bovine serum (FBS), 100 U·mL^−1 penicillin-streptomycin (Gibco, Waltham, MA, USA), 20 mM HEPES (Gibco, Waltham, MA, USA), and 50 ng·mL^−1 recombinant mouse macrophage colony-stimulating factor (M-CSF) (BioLegend, San Diego, CA, USA). On day 3, 10 mL of fresh medium containing 50 ng·mL^−1 M-CSF was added to the cultures. On day 5, cells were treated with 1 μM MsrB1 inhibitors. On day 6, cells were treated with LPS (BioLegend, San Diego, CA, USA) for 24 h. Following treatment, cells were harvested, and total RNA was extracted using the High-Capacity cDNA Reverse Transcription Kit (Applied Biosystems, Foster City, CA, USA). Gene expression of IL-10 and IL-1rn mRNA was analyzed using the QuantStudio 3 Real-Time PCR system.

[5] = test system: C57BL/6 mice; test: TPA-induced acute skin inflammation (ear edema) model; format: in vivo, mouse; settings: WT mice, 0.5 μM inhibitor in drinking water for 21 days, topical TPA
Description: Six-week-old male wild-type (WT) C57BL/6 mice and MsrB1 knockout (KO) mice were used in this experiment. The mice were provided with 50 mL water containing either 0.5 μM MsrB1 inhibitors dissolved in 1% DMSO or 1% DMSO alone (control) for 21 days. After this period, 50 μg·mL^−1 of TPA was applied to the right ear of each mouse, while the left ear received acetone as a control. Twenty hours after the initial TPA application, a second dose was administered. The mice were then sacrificed, and ear tissue samples were collected. The tissues were fixed in 10% formalin, dehydrated, embedded in paraffin, and sectioned into slices 3–5 μm thick. The sections were deparaffinized, rehydrated, and stained with hematoxylin and eosin (H&E) for histological examination under microscopy.

CCc1ccc(C2=NN(c3ccc(S(N)(=O)=O)cc3)C(c3ccc(O)cc3)C2)cc1 (centres unmarked) [A06, 4-[5-(4-ethylphenyl)-3-(4-hydroxyphenyl)-3,4-dihydropyrazol-2-yl]benzenesulfonamide]
NADPH (Abs15min/Abs0min) [1]: 0.942 | Relative enzyme activity of MsrB1 ([2]; 10 µM compound): no inhibition was observed | Relative enzyme activity of MsrB1 ([2]; 100 µM and 500 µM compound): decreased in a concentration-dependent manner | Kd [3]: 28.3 ± 1.21 nM | IL-1rn mRNA expression [4]: reduced | IL-10 mRNA expression [4]: significantly reduced | Dermal area of TPA-treated auricle (H&E) compared to wild-type control mice [5]: substantially more enlarged

CCc1ccc(-n2c3nc(=O)[nH]c(=O)c-3cc3c(Cl)cccc32)cc1 [B03, 6-chloro-10-(4-ethylphenyl)pyrimido[4,5-b]quinoline-2,4-dione]
NADPH (Abs15min/Abs0min) [1]: 0.918 | Relative enzyme activity of MsrB1 ([2]; 10 µM compound): no inhibition was observed | Relative enzyme activity of MsrB1 ([2]; 100 µM and 500 µM compound): decreased in a concentration-dependent manner | Kd [3]: 97.1 ± 1.6 nM | IL-1rn mRNA expression [4]: reduced | IL-10 mRNA expression [4]: significantly reduced | Dermal area of TPA-treated auricle (H&E) compared to wild-type control mice [5]: substantially more enlarged
